The results in this text go back to patent US20240287122A1, “NOVEL GALACTOSIDE INHIBITOR OF GALECTINS” (GALECTO BIOTECH AB, priority 2020, published 2024).

In assay [1] the target is Galectin-3 (Homo sapiens, UniProt P17931). Nature of the assay: Fluorescence anisotropy assay, affinity for galectin-3. The format is binding. The following applies: compound as inhibitor of the interaction between galectin and a fluorescein tagged saccharide probe. The procedure:
(§1) The affinity of Example 1-43 for galectins were determined by a fluorescence anisotropy assay where the compound was used as an inhibitor of the interaction between galectin and a fluorescein tagged saccharide probe as described Sörme, P., Kahl-Knutsson, B., Huflejt, M., Nilsson, U. J., and Leffler H. (2004) Fluorescence polarization as an analytical tool to evaluate galectin-ligand interactions. Anal. Biochem. 334: 36-47, (Sörme et al., 2004) and Monovalent interactions of Galectin-1 By Salomonsson, Emma; Larumbe, Amaia; Tejler, Johan; Tullberg, Erik; Rydberg, Hanna; Sundin, Anders; Khabut, Areej; Frejd, Torbjomn; Lobsanov, Yuri D.; Rini, James M.; et al, From Biochemistry (2010), 49(44), 9518-9532, (Salomonsson et al., 2010).

In assay [2] the target is Galectin-1 (Homo sapiens, UniProt P09382). The assay can be described thus: Fluorescence anisotropy assay, affinity for galectin-1. Conditions: compound as inhibitor of the interaction between galectin and a fluorescein tagged saccharide probe. The format is binding. The procedure:
as §1

Chain of Galectin-1 (P09382 whole entry): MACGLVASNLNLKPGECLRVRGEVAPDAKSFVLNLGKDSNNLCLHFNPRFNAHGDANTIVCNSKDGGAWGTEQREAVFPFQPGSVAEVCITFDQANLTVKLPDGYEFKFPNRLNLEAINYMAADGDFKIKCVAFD
Chain of Galectin-3 (P17931 whole entry): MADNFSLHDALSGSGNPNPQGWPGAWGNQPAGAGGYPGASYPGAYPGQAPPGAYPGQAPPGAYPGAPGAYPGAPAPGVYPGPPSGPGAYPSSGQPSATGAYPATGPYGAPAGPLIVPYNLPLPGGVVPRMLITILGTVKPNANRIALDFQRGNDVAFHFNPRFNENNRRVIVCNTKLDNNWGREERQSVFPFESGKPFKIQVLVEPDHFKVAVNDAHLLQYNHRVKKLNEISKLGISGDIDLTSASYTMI

Regarding `COC1C(n2cc(-n3ccc(Cl)n3)nn2)[C@@H](O)C(CO)O[C@@H]1Sc1cc(Br)cnc1C(=O)N(CC1CC1)CC1CC1` (stereo partly drawn) [Example 24, 5-Bromo-2-[N,N-bis(cyclopropylmethyl)carbamoyl]pyridin-3-yl 3-[4-(3-chloro-1H-1,2-pyrazol-1-yl)-1H-1,2,3-triazol-1-yl]-3-deoxy-2-O-methyl-1-thio-α-D-galactopyranoside], the equilibrium dissociation constant (Kd) was determined as 83 nM in assay [1] and 120 nM in assay [2].

Turning to `CCN(CC1CCC1)C(=O)c1ncc(Br)cc1S[C@H]1OC(CO)[C@H](O)C(n2cc(-n3ccc(Cl)n3)nn2)C1OC` (stereo partly drawn) [Example 25, 5-Bromo-2-[N,N-(cyclobutylmethyl)ethylcarbamoyl}pyridin-3-yl 3-[4-(3-chloro-1H-1,2-pyrazol-1-yl)-1H-1,2,3-triazol-1-yl]-3-deoxy-2-O-methyl-1-thio-α-D-galactopyranoside], the Kd in assay [1] is 75 nM; in assay [2], 140 nM.

Take `COC1C(n2cc(-n3ccc(Cl)n3)nn2)[C@@H](O)C(CO)O[C@@H]1Sc1cc(Br)cnc1C(=O)N(CC1CCC1)C(C)C` (stereo partly drawn) [Example 26, 5-Bromo-2-[N,N-(cyclobutylmethyl)isopropylcarbamoyl]pyridin-3-yl 3-[4-(3-chloro-1H-1,2-pyrazol-1-yl)-1H-1,2,3-triazol-1-yl]-3-deoxy-2-O-methyl-1-thio-α-D-galactopyranoside]: the Kd in assay [1] stood at 110 nM; in assay [2], 160 nM.

Consider `COC1C(n2cc(-n3ccc(Cl)n3)nn2)[C@@H](O)C(CO)O[C@@H]1Sc1cc(Br)cnc1C(=O)N(CC1CCC1)CC1CCC1` (stereo partly drawn) [Example 27, 5-Bromo-2-[N,N-bis(cyclobutylmethyl)carbamoyl]pyridin-3-yl 3-[4-(3-chloro-1H-1,2-pyrazol-1-yl)-1H-1,2,3-triazol-1-yl]-3-deoxy-2-O-methyl-1-thio-α-D-galactopyranoside], for which the results for the Kd in assay [1] and in assay [2] were 260 nM and 380 nM, respectively.

As to `COC1C(n2cc(-n3ccc(Cl)n3)nn2)[C@@H](O)C(CO)O[C@@H]1Sc1cc(Br)cnc1C(=O)N1CCCC1` (stereo partly drawn) [Example 28, 5-Bromo-2-(pyrrolidine-1-carbonyl)pyridin-3-yl 3-[4-(3-chloro-1H-1,2-pyrazol-1-yl)-1H-1,2,3-triazol-1-yl]-3-deoxy-2-O-methyl-1-thio-α-D-galactopyranoside], the Kd stood at 52 nM in assay [1] and 69 nM in assay [2].

Turning to `CCN(CC(F)(F)F)C(=O)c1ncc(Br)cc1S[C@H]1OC(CO)[C@H](O)C(n2cc(-n3ccc(Cl)n3)nn2)C1OC` (stereo partly drawn) [Example 29, 5-Bromo-2-[N,N-ethyl-(2,2,2-trifluoroethyl)carbamoyl]pyridin-3-yl 3-[4-(3-chloro-1H-1,2-pyrazol-1-yl)-1H-1,2,3-triazol-1-yl]-3-deoxy-2-O-methyl-1-thio-α-D-galactopyranoside], the results for the dissociation constant Kd in assay [1] and in assay [2] were 60 nM and 100 nM, respectively.

Take `CCN(CC(C)(C)F)C(=O)c1ncc(Br)cc1S[C@H]1OC(CO)[C@H](O)C(n2cc(-n3ccc(Cl)n3)nn2)C1OC` (stereo partly drawn) [Example 30, 5-Bromo-2-[N,N-ethyl(2-fluoro-2-methylpropyl)carbamoyl]pyridin-3-yl 3-[4-(3-chloro-1H-1,2-pyrazol-1-yl)-1H-1,2,3-triazol-1-yl]-3-deoxy-2-O-methyl-1-thio-α-D-galactopyranoside]: the Kd in assay [1] worked out at 62 nM; in assay [2] it was 140 nM.

`COC1C(n2cc(-n3ccc(Cl)n3)nn2)[C@@H](O)C(CO)O[C@@H]1Sc1cc(Br)cnc1C(=O)N(CC1CC1)C(C)C` (stereo partly drawn) [Example 31, 5-Bromo-2-[N,N-(cyclopropylmethyl)isopropylcarbamoyl]pyridin-3-yl 3-[4-(3-chloro-1H-1,2-pyrazol-1-yl)-1H-1,2,3-triazol-1-yl]-3-deoxy-2-O-methyl-1-thio-α-D-galactopyranoside]: the Kd was 60 nM in assay [1] and 72 nM in assay [2].

Take `COC1C(n2cc(-n3ccc(Cl)n3)nn2)[C@@H](O)C(CO)O[C@@H]1Sc1cc(Br)cnc1C(=O)N(CC(C)C)C(C)C` (stereo partly drawn) [Example 32, 5-Bromo-2-(N,N-isobutylisopropylcarbamoyl)pyridin-3-yl 3-[4-(3-chloro-1H-1,2-pyrazol-1-yl)-1H-1,2,3-triazol-1-yl]-3-deoxy-2-O-methyl-1-thio-α-D-galactopyranoside]: the Kd worked out at 63 nM in assay [1] and 110 nM in assay [2].

`COC1C(n2cc(-n3ccc(Cl)n3)nn2)[C@@H](O)C(CO)O[C@@H]1Sc1cc(Br)cnc1C(=O)N(CC1CC1)OC` (stereo partly drawn) [Example 33, 5-Bromo-2-[N,N-(cyclopropylmethyl)methoxycarbamoyl]pyridin-3-yl 3-[4-(3-chloro-1H-1,2-pyrazol-1-yl)-1H-1,2,3-triazol-1-yl]-3-deoxy-2-O-methyl-1-thio-α-D-galactopyranoside]: the dissociation constant Kd in assay [1] was 68 nM; in assay [2], 74 nM.

In the case of `CNC(=O)c1ncc(Br)cc1S[C@H]1OC(CO)[C@H](O)C(n2cc(-n3ccc(Cl)n3)nn2)C1OC` (stereo partly drawn) [Example 34, 5-Bromo-2-(N-methylcarbamoyl)pyridin-3-yl 3-[4-(3-chloro-1H-1,2-pyrazol-1-yl)-1H-1,2,3-triazol-1-yl]-3-deoxy-2-O-methyl-1-thio-α-D-galactopyranoside], the equilibrium dissociation constant (Kd) in assay [1] was determined as 140 nM; in assay [2], 63 nM.

`CCNC(=O)c1ncc(Br)cc1S[C@H]1OC(CO)[C@H](O)[C@H](n2cc(-n3ccc(Cl)n3)nn2)C1OC` (stereo partly drawn) [Example 35, 5-Bromo-2-(N-ethylcarbamoyl)pyridin-3-yl 3-[4-(3-chloro-1H-1,2-pyrazol-1-yl)-1H-1,2,3-triazol-1-yl]-3-deoxy-2-O-methyl-1-thio-α-D-galactopyranoside]: the values for the Kd in assay [1] and in assay [2] were 140 nM and 63 nM, respectively.

For the compound `CCCCNC(=O)c1ncc(Br)cc1S[C@H]1OC(CO)[C@H](O)[C@H](n2cc(-n3ccc(Cl)n3)nn2)C1OC` (stereo partly drawn) [Example 36, 5-Bromo-2-(N-butylcarbamoyl)pyridin-3-yl 3-[4-(3-chloro-1H-1,2-pyrazol-1-yl)-1H-1,2,3-triazol-1-yl]-3-deoxy-2-O-methyl-1-thio-α-D-galactopyranoside], the values for the Kd in assay [1] and in assay [2] were 140 nM and 110 nM, respectively.

Take `COC1[C@@H](Sc2cc(Br)cnc2C(=O)NCC(C)C)OC(CO)[C@H](O)[C@@H]1n1cc(-n2ccc(Cl)n2)nn1` (stereo partly drawn) [Example 37, 5-Bromo-2-(N-isobutylcarbamoyl)pyridin-3-yl 3-[4-(3-chloro-1H-1,2-pyrazol-1-yl)-1H-1,2,3-triazol-1-yl]-3-deoxy-2-O-methyl-1-thio-α-D-galactopyranoside]: the Kd was 110 nM in assay [1] and 92 nM in assay [2].

With `COC1[C@@H](Sc2cc(Br)cnc2C(=O)NCCF)OC(CO)[C@H](O)[C@@H]1n1cc(-n2ccc(Cl)n2)nn1` (stereo partly drawn) [Example 38, 5-Bromo-2-[N-(2-fluoroethyl)carbamoyl]pyridin-3-yl 3-[4-(3-chloro-1H-1,2-pyrazol-1-yl)-1H-1,2,3-triazol-1-yl]-3-deoxy-2-O-methyl-1-thio-α-D-galactopyranoside], the equilibrium dissociation constant (Kd) in assay [1] is 180 nM; in assay [2], 80 nM.

Turning to `COC1[C@@H](Sc2cc(Br)cnc2C(=O)NC23CC(C2)C3)OC(CO)[C@H](O)[C@@H]1n1cc(-n2ccc(Cl)n2)nn1` (stereo partly drawn) [Example 39, 5-Bromo-2-(N-bicyclo[1.1.1]pentan-1-ylcarbamoyl)pyridin-3-yl 3-[4-(3-chloro-1H-1,2-pyrazol-1-yl)-1H-1,2,3-triazol-1-yl]-3-deoxy-2-O-methyl-1-thio-α-D-galactopyranoside], the dissociation constant Kd is 180 nM in assay [1] and 64 nM in assay [2].

With `COC1[C@@H](Sc2cc(Br)cnc2C(=O)NC2CCC2)OC(CO)[C@H](O)[C@@H]1n1cc(-n2ccc(Cl)n2)nn1` (stereo partly drawn) [Example 40, 5-Bromo-2-(N-cyclobutylcarbamoyl)pyridin-3-yl 3-[4-(3-chloro-1H-1,2-pyrazol-1-yl)-1H-1,2,3-triazol-1-yl]-3-deoxy-2-O-methyl-1-thio-α-D-galactopyranoside], the dissociation constant (Kd) worked out at 160 nM in assay [1] and 82 nM in assay [2].

Take `COC1[C@@H](Sc2cc(Br)cnc2C(=O)NC2CC2)OC(CO)[C@H](O)[C@@H]1n1cc(-n2ccc(Cl)n2)nn1` (stereo partly drawn) [Example 41, 5-Bromo-2-(N-cyclopropylcarbamoyl)pyridin-3-yl 3-[4-(3-chloro-1H-1,2-pyrazol-1-yl)-1H-1,2,3-triazol-1-yl]-3-deoxy-2-O-methyl-1-thio-α-D-galactopyranoside]: the Kd was found to be 160 nM in assay [1] and 73 nM in assay [2].

Consider `COC1C(n2cc(-n3cc(Cl)c(Cl)n3)nn2)[C@@H](O)C(CO)O[C@@H]1Sc1cc(Br)cnc1C#N` (stereo partly drawn) [Example 42, 5-Bromo-2-cyanopyridin-3-yl 3-[4-(3,4-dichloro-1H-1,2-pyrazol-1-yl)-1H-1,2,3-triazol-1-yl]-3-deoxy-2-O-methyl-1-thio-α-D-galactopyranoside], for which the Kd in assay [1] is 30 nM; in assay [2], 290 nM.

As for `COC1C(n2cc(-n3cc(F)c(Cl)n3)nn2)[C@@H](O)C(CO)O[C@@H]1Sc1cc(Br)cnc1C#N` (stereo partly drawn) [Example 43, 5-Bromo-2-cyanopyridin-3-yl 3-[4-(3-chloro-4-fluoro-1H-1,2-pyrazol-1-yl)-1H-1,2,3-triazol-1-yl]-3-deoxy-2-O-methyl-1-thio-α-D-galactopyranoside], the Kd in assay [1] was 140 nM; in assay [2], 270 nM.
